Test [1] concerns S. pneumoniae. The experiment in a line: ATP efflux assay. The test is classed as cell-based, Streptococcus pneumoniae. The note with it: peptides 125 µg/ml (RN7-IN7 500 µg/ml); for ATP released, Average 1hr / ATP released, Average 2hr / ATP released, Average 3hr: raw data sheet, mean of 3. As to the method: The amount of ATP released from pneumococcal cells incubated with hybrid peptides was measured as described previously, with a slight modification ([Tanida et al., 2006]). The ATP determination kit (Molecular Probes, Eugene, OR, USA) was used to measure the amount of ATP released based on the luciferin/luciferase method according to the manufacturer’s instructions. Briefly, S. pneumoniae were grown overnight on Columbia agar with 5% sheep blood. Bacterial suspensions were spectrophotometrically adjusted to (1 × 10^7 CFU/ml) and incubated with hybrid peptides RN7-IN10, RN7-IN9, RN7-IN8 and RN7-IN6 at 125 µg/ml and with RN7-IN7 at 500 µg/ml. The amount of ATP released form the pneumococcal cells were measured at three time points 1, 2 and 3 h. The samples were then centrifuged at 5,000 rpm for 5 min, and ATP efflux was subsequently estimated using an ATP standard curve. Values were obtained from three independent experiments. Ceftriaxone and erythromycin were used as positive controls.

For test [2], the system named is Resistant S. pneumoniae. The following applies: incubation with resistant S. pneumoniae; ref Jindal et al., 2015; cited from earlier work.
For test [3], the system named is S. pneumoniae (highly virulent strain). The experiment in a line: In vivo antipneumococcal activity, pneumococcal bacteremia (lethal systemic infection) model. More on the design: species or system mice. As to the method: Two pneumococcal infection models developed previously in our lab ([Le et al., 2015]) were used to assess the therapeutic efficacy of peptides in vivo. The systemic infection model was used to mimic pneumococcal bacteremia in humans and the pneumococcal pneumonia model was used to mimic pneumococcal pneumonia in humans. A highly virulent strain was used in both the models. The bacterial isolate was grown overnight on Columbia agar with 5% sheep blood at 37 °C under 5% CO2. The bacterial suspension was adjusted to OD625 0.08-0.1 (1 ∼ 2 × 10^8 CFU/ml). Mice tested for lethal systemic infection were inoculated with 1.5 × 10^2 CFU/mouse (100 μl) via IP route. Mice used to assess the Pneumococcal pneumonia model were inoculated with pneumococcal cells of 5 × 10^3 CFU/mouse (50 μl) via the intrathoracic route.
After 1 hr of inoculation, Mice receiving treatment were randomized and divided into six groups. RN7-IN10 and RN7-IN8 were tested at three different doses for each (5 mg/kg, 10 mg/kg and 20 mg/kg) using a group of 10 mice. Graded doses of ceftriaxone (5 mg/kg, 10 mg/kg, […], 40 mg/kg and 80 mg/kg) were also tested to assess the in vivo antibacterial activity of this antibiotic. Only mice injected with PBS were served as uninfected control. Mice injected with bacterial inoculum were used as untreated control group and given sterile distilled water only. Survival of mice was documented for seven days or until death. After seven days, the experiment was ended, the blood and homogenates of the five major organs (kidney, brain, spleen, liver and lung) of the surviving mice were plated on Columbia agar with 5% sheep blood, to detect the presence of pneumococcal cells. […]

Test [4] deals with S. pneumoniae genomic DNA. The experiment in a line: Gel retardation assay (DNA retardation). The following applies: 250 ng genomic DNA; 0.24–500 µg/ml tested; 10 min, room temperature; 1% agarose gel. In kind it is binding, Streptococcus pneumoniae. As for the experimental part: This assay was carried out as described previously, with minor modifications ([Li et al., 2013]). S. pneumoniae were grown overnight on Columbia agar with 5% sheep blood. A few bacterial colonies were transferred into a 1.5 ml eppendorf tube containing phosphate buffered saline (PBS). The bacterial cells were centrifuged, PBS was discarded and 50 µl of TE buffer containing 0.08 g/ml of lysozyme and 150 U/ml of mutanolysin was added to the cells. Genomic DNA was isolated from pneumococcal cells using DNeasy Blood & Tissue Kit (Qiagen, Hilden, Germany), following the manufacturer’s giudlines. The optical density ratio of 260 nm and 280 nm (OD260∕OD280 = 1.83) was used to measure the purity of the DNA. Genomic DNA (250 ng) was incubated with hybrid peptides at various concentrations (0.24–500 µg/ml) in 12 μl at room temperature for 10 min. 2 μl of loading buffer were added to the mixture and the migration of DNA through 1% agarose gel was evaluated by electrophoresis in 1 × Tris borate–EDTA buffer (45 mM Tris–borate and 1 mM EDTA at pH 8.0) and spotted by the fluorescence of gel stain (Gel Red, BIOTIUM, Fremont, CA, USA). The natural peptide indolicidin was used as positive controls, ceftriaxone and erythromycin were used as negative controls.

The subject of test [5] is Streptococcus pneumoniae. The following applies: 30 pneumococcal clinical isolates; earlier study; ref Jindal et al., 2015; cited from earlier work. The text has this: Table 1 Sequences and physicochemical properties of the template and hybrid AMPs. | column: MIC^a || One of the advantageous alternatives to today’s antibiotics is antimicrobial peptides (AMPs) ([Deslouches et al., 2013]; [Sánchez-Vásquez et al., 2013]). AMPs are synthesized by almost all living beings as the first line of defense in their immune system against microbial infection. Many aspects favor AMPs over traditional antibiotics: a broad range of antimicrobial activity against pathogenic micro-organisms (including viruses, parasites, bacteria, and fungi), microbial pathogens are less efficient in developing resistance against AMPs, as killing take place in a short contact time and AMPs c ...

Test [6] relates to S. pneumoniae. The experiment in a line: Transmission electron microscopy (TEM) of treated cells. The note with it: 10^8 CFU/ml in CAMHB; 8 × MIC (125 µg/ml; RN7-IN7 500 µg/ml); 1 h, 37 °C, 5% CO2. The test is classed as cell-based, Streptococcus pneumoniae. As to the method:
Bacteria were prepared for TEM according to the guidelines of the Electron Microscopy Unit at the Faculty of Medicine, University of Malaya. S. pneumoniae cultures were grown overnight on Columbia agar with 5% sheep blood and suspended in cationally adjusted Mueller-Hinton broth (CAMHB) at 10^8 CFU/ml. […] Cells in cationally adjusted Mueller-Hinton broth (CAMHB) were used as an untreated control. After an hour of incubation, the pneumococcal cells were centrifuged to discard the medium, washed thrice with 10 mM phosphate buffer saline at pH 7.3 and fixed overnight in 4% (v/v) glutaraldehyde. All samples were washed twice with cacodylate buffer, incubated for 2 h in osmium tetroxide buffer (OsO4 1: 1 cacodylate), washed twice with cacodylate buffer and then incubated overnight in cacodylate buffer. All the samples were washed with distilled water twice and incubated for 10 min with uranyl acetate. After this, all samples were then washed twice with distilled water and dehydrated in an ascending series of ethanol: 35% (10 min), 50% (10 min), 70% (10 min), 95% (15 min), and thrice in 100% ethanol (15 min). After dehydration, samples were incubated with propylene oxide (15 min), propylene oxide 1:1 Epon (1 h), propylene oxide 1:3 Epon (2 h) and finally incubated overnight with Epon. All the samples were embedded in agar 100 resin at 37 °C for 5 hr and maintained at 60 °C until viewing. Reichert Ultramicrotome copper grids 3.05 mm (300 square mesh) (Agar Scientific, Essex, United Kingdom) were used to prepare Ultrathin sections. Ethanol-based uranyl acetate and lead citrate were used to stain the samples for 5 min. Transmission electron microscope (Leo Libra 120) was used to capture the images.

Setting [7] is: 1 × 10^7 CFU/ml, luciferin/luciferase, ATP standard curve, mean ± SD, three independent experiments.

Turning to `CO/N=C(\C(=O)N[C@@H]1C(=O)N2C(C(=O)O)=C(CSc3nc(=O)c(=O)[nH]n3C)CS[C@H]12)c1csc(N)n1` [ceftriaxone, reference compound], the “ATP released from pneumococcal cells after 1 h” value (from here on “ATP released … after 1 h”) in test [1] (setting [7]) was determined as 5.24 ± 1.43 pM. Further, the “ATP released, Average 1hr” value in test [1] worked out at 5.248 pM. Besides, the “ATP released, Average 2hr” value in test [1] was determined as 3.522 pM. Moreover, in test [1], the “ATP released, Average 3hr” value was determined as 3.119 pM. Also, in test [2], the “time to bactericidal activity / elimination of S. pneumoniae” value was greater than 240 min. The “survival of infected mice up to seven days post-infection” value in test [3] (1.5 × 10^2 CFU/mouse IP, treatment IP 5 mg/kg (peptides at 1 h, 12 h, 24 h post-infection), 10 mice) is 10%; in test [3] (1.5 × 10^2 CFU/mouse IP, treatment IP 10 mg/kg (peptides at 1 h, 12 h, 24 h post-infection), 10 mice) it was 30%; in test [3] (1.5 × 10^2 CFU/mouse IP, treatment IP 20 mg/kg (peptides at 1 h, 12 h, 24 h post-infection), 10 mice), 40%; in test [3] (treatment IP 40 mg/kg), 70%; in test [3] (treatment IP 80 mg/kg), 90%. Besides, the “concentration inhibiting migration of genomic DNA through the agarose gel” value (“concentration inhibiting migration” for short) in test [4] was greater than 500 µg/mL.

Take `CC[C@H]1OC(=O)[C@H](C)[C@@H](O[C@H]2C[C@@](C)(OC)[C@@H](O)[C@H](C)O2)[C@H](C)[C@@H](O[C@@H]2O[C@H](C)C[C@H](N(C)C)[C@H]2O)[C@](C)(O)C[C@@H](C)C(=O)[C@H](C)[C@@H](O)[C@]1(C)O` [erythromycin, reference compound]: the “ATP released … after 1 h” value in test [1] (setting [7]) was 0.49 ± 0.004 pM. Moreover, in test [1], the “ATP released, Average 1hr” value is on record as 0.4933 pM; the “ATP released, Average 2hr” value is listed as 0.4736 pM; the “ATP released, Average 3hr” value came to 0.3124 pM. The “concentration inhibiting migration” value in test [4] was greater than 500 µg/mL.

On to “FLGGLIKIVPAMICAVTKKC-OH [Ranalexin, natural template antimicrobial peptide]”, for which, in test [5], the “MIC, minimum inhibitory concentration” value is 62.5 µg/mL.

As for “FLGGLIKPWWPWRR-NH2 [RN7-IN7, hybrid peptide of ranalexin (residues 1-7) and indolicidin (residues 7-13)]”, in test [1] (setting [7]), the “ATP released … after 1 h” value was 22.35 ± 0.9 pM and the “ATP released from pneumococcal cells after 3 h” value was 13.02 ± 2.26 pM. The “TEM: detachment of cell wall from cell membrane” value in test [6] is listed as “partial disconnection of the cell wall from the cell membrane”. For the same compound, in test [5], the “MIC, minimum inhibitory concentration” value was 62.5 µg/mL.

As to “ILPWKWPWWPWRR-NH2 [Indolicidin, natural template (parent) antimicrobial peptide]”, the “MIC, minimum inhibitory concentration” value in test [5] was 15.62 to 31.25 µg/mL. The “concentration inhibiting migration” value in test [4] was 62.5 µg/mL.
